Here are results for two compounds from patent US20240216317A1, “COMPOSITION FOR PREVENTING, AMELIORATING OR TREATING INFLAMMATORY BOWEL DISEASE COMPRISING COMPOUND ISOLATED FROM ISODON EXCISUS AS EFFECTIVE COMPONENT” (HEALINNOLS INC., priority 2022, published 2024).

The subject of the test is TNF-α. Kind of test: TNF-α mRNA expression (qPCR) in zebra fish animal model of DSS-induced inflammatory bowel disease. The settings on record: FIG. 5; for expression amount of TNF-α compared to DSS model group: zebra fish larvae, 0.5% DSS, 5 hours treatment, Chemical formula 1 0.3 μM and 1 μM. The test is classed as in vivo, zebra fish (Danio rerio: AB). As to the method:
As a zebra fish animal model of inflammatory bowel disease, wild-type zebra fish (Danio rerio: AB) was used, which was kept in an exclusive breeding facility at conditions including light/dark cycle of 14 hours/10 hours and temperature of 28° C. All the animal experiments were carried out according to the protocol of Ethics Committee for Animal Expectation, Healinno-LS (Registration No.: AEC-20210720-0001), and all the materials were sterilized first before they are used for experiment.
According to a treatment with 0.5% DSS (dextran sulfate sodium, M.W. 36,000-50,000, #160110, MP), which induces “ulcerative colitis” as inflammatory bowel disease by creating a damage in colonic epithelial cells, a zebra fish was induced to have inflammatory bowel disease. Then, by threating the zebra fish with the compound represented by Chemical formula 1 of the present invention at different concentrations (0.3 μM and 1 μM), inhibitory activity on inflammatory bowel disease was examined.
As a zebra fish animal model of DSS-induced ulcerative colitis, zebra fish larvae 3 days after fertilization (3 dpf; days post fertilization) were used. 3 dpf zebra fish larvae were added to a 24-well plate, i.e., 20 larvae per well, and treated with 0.5% DSS to induce ulcerative colitis. After keeping them to 6 dpf zebra fish larva period, DSS was removed, and then they were treated for 5 hours with the compound represented by Chemical formula 1 of the present invention.
The zebra fish larvae which have been treated with the compound represented by Chemical formula 1 of the present invention were then added with TRIzol reagent (300 μl), and then homogenized by using a tissue homogenizer (G20, GINKO). Homogenized zebra fish larvae were maintained for 5 minutes at room temperature, and then treated with chloroform (60 μl). After removing proteins and cell debris, the mixture was centrifuged for 15 minutes at 12,000×g, 4° C. […] Purity and concentration were measured by using a microplate reader (FLUOstar omega, BMG Labtech), and the extracted total RNA was kept at −80° C. […]

SMILES strings stand for the structures.

`COC(=O)C[C@H](OC(=O)/C=C/c1ccc(O)c(O)c1)c1ccc(O)c(O)c1` [Compound 1, 3-[3,4-dihydroxyphenyl]acrylic acid 1-[3,4-dihydroxyphenyl]-2-methoxycarbonylethyl ester]: the “expression amount of TNF-α compared to DSS model group” value is given as “statistically significantly lower”. Besides, for the setting “zebra fish DSS model, TNF-α and IL-1β, compared with 5-ASA and prednisolone”, the “reduction of transcription amount of proinflammatory cytokines” value is “much lower concentration than 5-ASA and prednisolone”.

On to `Nc1ccc(O)c(C(=O)O)c1` [Compound 5-ASA, 5-aminosalicylic acid, reference compound], for which the “expression amount of TNF-α compared to DSS model group” value is listed as “statistically significantly lower”.
